The source of these data is patent US12441706B2, “Protein degradation agent compound preparation method and application” (SHANGHAI JEMINCARE PHARMACEUTICALS CO., LTD., priority 2019, dated 2025).

The target of one assay is T1, androgen receptor (Homo sapiens, UniProt P10275, T878A).
T1 construct: endogenous in cells; host or cells: LNCaP cells
T1 sequence (P10275 1-920 T878A): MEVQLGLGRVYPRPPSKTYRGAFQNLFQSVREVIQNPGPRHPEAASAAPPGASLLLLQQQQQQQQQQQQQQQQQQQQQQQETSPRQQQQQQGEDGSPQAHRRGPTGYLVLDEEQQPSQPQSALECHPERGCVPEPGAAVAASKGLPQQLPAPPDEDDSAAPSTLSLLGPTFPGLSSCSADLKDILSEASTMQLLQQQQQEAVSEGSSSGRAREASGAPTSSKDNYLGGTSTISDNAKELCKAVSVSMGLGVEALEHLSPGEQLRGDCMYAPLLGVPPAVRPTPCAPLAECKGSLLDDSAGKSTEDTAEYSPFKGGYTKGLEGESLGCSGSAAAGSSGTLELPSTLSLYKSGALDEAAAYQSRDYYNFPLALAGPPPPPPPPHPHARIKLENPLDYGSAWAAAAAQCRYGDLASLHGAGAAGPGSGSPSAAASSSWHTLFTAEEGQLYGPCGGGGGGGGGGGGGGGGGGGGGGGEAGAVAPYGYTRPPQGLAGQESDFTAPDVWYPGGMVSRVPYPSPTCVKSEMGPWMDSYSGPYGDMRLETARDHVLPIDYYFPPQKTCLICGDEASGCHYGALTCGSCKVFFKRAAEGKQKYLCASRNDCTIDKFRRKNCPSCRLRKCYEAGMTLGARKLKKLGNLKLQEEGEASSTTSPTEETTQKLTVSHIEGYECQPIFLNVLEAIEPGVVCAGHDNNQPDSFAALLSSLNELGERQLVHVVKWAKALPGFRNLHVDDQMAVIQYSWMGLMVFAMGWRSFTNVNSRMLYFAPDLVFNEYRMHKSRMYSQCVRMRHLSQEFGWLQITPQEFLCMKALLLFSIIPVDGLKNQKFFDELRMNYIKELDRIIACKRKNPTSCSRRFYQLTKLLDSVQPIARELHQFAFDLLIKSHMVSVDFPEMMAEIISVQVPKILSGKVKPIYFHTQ
Kind of assay: In-Cell-Western determination of androgen receptor degradation in LnCaP cells. Format: cell-based. The following applies: for Dmax: LNCaP; for DC50: concentration for half of the maximal degradation of AR in LnCaP cells, 24 hours treatment. On the procedure: The determination evaluated the properties of the compounds in Lncap cells. Intracellular androgen receptor was determined by In-Cell-Western according to the determination steps described below.
In poly-D-Lysin pretreated 96-well cell culture plate (Corning 3599), LNcap cells were divided into 100 μL/well volume, and inoculated with 30,000 cells/well in LNcap cell assay medium [DMEM containing phenol red (Gibco catalog number: 11995065); fetal bovine serum FBS (Gibco catalog number: 10099141C)]. Cells were cultured for at least two days.
1. First treated cells with compound. Compounds were gradient diluted with DMSO and cell culture medium, so that DMSO contained in cell culture plates was diluted to 0.5% —polypropylene plates were used according to the following protocol: (1)(i) 200× stock plate in DMSO was prepared; (ii) 10 mM stock solution was diluted 1:4 with DMSO (10 μL stock solution+40 μL DMSO)=2000 μM, then entered into row 2; (iii) 1:4 (10 μL protac+40 μL DMSO) gradient dilution was performed from row 2 to row 9, and row 1 was reserved for […] reference compound and row 10 for DMSO. (iv) A total of 8 concentrations (final concentrations on the 200× plate were 2000 μM, 400 μM and 80 μM, etc.). (2) (i) 3× stock solution was prepared in the medium. (ii) 3 μL of 200× stock solution was transferred to 197 µL of culture medium (using 12-channel pipette, from line 1 to line 10), i.e. 3× stock solution plate. (iii) The stock solution plate was mixed evenly. (3) (i) The culture medium of […] cells was replaced with fresh culture medium, 100 μL volume culture medium. (ii) The well-mixed 3× stock solution was transferred to the cell culture plate (using a 12-channel pipette, and 50 μL of stock solution was transferred from line 1 to line 10). (iii) Cells were cultured for 24 hours.
2. The expression level of intracellular androgen receptor after compound treatment was […] and determined according to the following method.
(1)(i) Equal volume of 8% paraformaldehyde was added to the cell culture plate for cell fixation. The fixing solution in the cell plate was discarded and washed three times with PBS. (ii) Triton solution (1:1000 dilution of the stock solution) was prepared. The solution in the cell plate was discarded, and 200 μL of Triton diluent was added into each well. (iii) 2×blocking solution (1:4 dilution of 10×blocking stock solution) was prepared. The solution in the cell plate was discarded, and 100 μL of 2×blocking solution was added into each well. (iv) Primary antibody solution (Androgen receptor Rabbbit mAb, Cell Signaling Technology catalog number: 5153; 1:1000 dilution) was prepared. The solution in the cell plate was discarded, 100 μL volume of primary antibody diluent was added to each well, and incubated at 4° C. overnight. (v) The primary antibody solution was discarded and the cell plate was washed with 1×Wash buffer. (vi) Secondary antibody solution (GOAT Antirabbit IgG (H+L), HRP, Thermo catalog number: 31460; 1:5000 dilution) was prepared, and 100 μL volume of secondary antibody dilution was added to each well for incubation. (vii) The secondary antibody solution in the cell plate was discarded and the cell plate was washed with 1×Wash buffer. (viii) TMB chromogenic solution (BD catalog number: 550534) was prepared, and 100 μL chromogenic solution was added into each well. (ix) 50 μL volume of stop solution (BD catalog number: 550534) was added to each well. (x) The absorption values at OD 450 nm and 570 nm were read though EnVision. (2) (i) Normalized analysis was performed on the number of cells in each well. The solution in the cell plate was discarded, and washed with wash buffer for three times. (ii) Janus dilution (1:3 dilution) was prepared. (iii) 50 μL volume diluent was added to each well for incubation. (iv) The solution in the plate was discarded and washed with deionized water. […]

The subject of a further assay is LNcap FGC cells. Description: Inhibition of proliferation of LNcap FGC cells (Cell Titer Glo, 6 days). The class given is cell-based. The following applies: Homo sapiens, LNCaP, 144 h. On the procedure:
Tumor cell line LNcap FGC (ATCC catalog number CRL-1740) was cultured in RPMI 1640 (Gibco catalog number 11875-093) and DMEM (Gibco catalog number. 11965-092) medium containing 10% FBS (Gibco catalog number 10099-141C), respectively.
LNcap FGC cells were inoculated in a 384-well plate (Perkin Elmer catalog number 6007460) at a cell density of 400 cells/well in a volume of 20 μL/well and incubated overnight in a carbon dioxide incubator (Thermo). The prepared compound solutions of different concentrations were added in a volume of 5 μL/well. The corresponding vehicle control was set at the same time. After being cultured in the incubator for 6 days, the cell plate and the contents were equilibrated to room temperature, and 25 μL of Cell Titer Glor (Promega catalog number G7573) was added to each well, shook and mixed well, incubated in dark for 10-30 minutes, and the signal values were detected with Envision microplate reader (PerkinElmer).
The percentage inhibition rate of compound-treated wells was calculated from the vehicle control wells on the plate, and the percentage inhibition rate data corresponding to different concentrations were fitted by GraphPad prism, and the IC50 values were calculated by 4-parameter nonlinear logic formula.

With `CC1(C)C(=O)N(c2ccc(C#N)c(Cl)c2)c2ccc(-c3ccc(N4CC(CN5CCN(c6ccc7c(c6)C(=O)N(C6CCC(=O)NC6=O)C7=O)CC5)C4)cc3)cc21` (stereo not drawn) [Compound 1], at androgen receptor, the Dmax is 82% and the DC50 is 90.3 nM. In the assay with LNcap FGC cells, this compound returned an Emax of 91% and an IC50 of 66.1 nM.

On to `CC1(C)C(=O)N(c2ccc(C#N)c(C(F)(F)F)c2)c2ccc(-c3ccc(N4CC(CN5CCN(c6ccc7c(c6)C(=O)N(C6CCC(=O)NC6=O)C7=O)CC5)C4)cc3)cc21` (stereo not drawn) [Compound 3], for which, on androgen receptor, the maximal degradation (Dmax) came out at 89% and half-maximal degradation (DC50) was put at 87.1 nM. For the same compound, in the assay with LNcap FGC cells, the Emax came to 93% and the IC50 was 54.8 nM.

`CC1(C)C(=O)N(c2ccc(C#N)c(Cl)c2)c2ccc(-c3ccc(N4CC(CN5CCN(c6ccc7c(c6)C(=O)N(C6CCC(=O)NC6=O)C7=O)CC5)C4)nc3F)cc21` (stereo not drawn) [Compound 14]: at androgen receptor, the Dmax was 93% and the DC50 is 66.3 nM. Also, in the assay with LNcap FGC cells, the Emax came out at 100% and the half-maximal inhibitory concentration (IC50) stood at 60.6 nM.
